Measured values from US20080176787A1, “Parathyroid hormone analogues and methods of use” (priority 2005, published 2008).
Where two headings read alike, the source gives them in different places. Positions of bridges follow the written chain, without caps; N, C: chain ends. Residues, ends and D or L forms follow the SMILES beside them.

Assays:
[1] = Plasma pharmacokinetics of Ostabolin-C formulations in female rats, single 200 μg/kg SC, IM, IV; format: in vivo; conditions: rat; for Vd: iv
Procedure: Formulations were prepared once only as follows: The bulk freeze-dried peptide was dissolved in 0.01 M acetic acid (supplied by Fisher Scientific, Loughborough, UK) in a 1:1 ratio, re-aliquotted into dosing vials and deep frozen (approximately −70° C.). The vials were freeze-dried at <−20° C. and stored frozen until required. The freeze-dried aliquots for injection were re-constituted with water for injection (supplied by Animalcare Ltd, York, UK). The peptide was dissolved in an appropriate volume of purified water to an approximate concentration of 2 to 3 mg/mL. Phosphate buffered saline (pH 7.4) was added to give the final required concentration (at approximately pH 7.2). The capped vial(s) were mixed thoroughly to ensure the peptide was fully dissolved. Aseptic techniques and glass vials were used throughout dose preparation. The dose was not sterile filtered. […] The calculated amounts of mannitol, sodium acetate trihydrate and glacial acetic acid were weighed and then dissolved in the correct amount of water for injection. The test article was weighed, added to the solution and stirred to dissolve. The pH was adjusted to 4.5 with 0.1N NaOH or HCl (supplied by Covance, Harrogate) depending on initial pH. Water was added to obtain the required volume.
The calculated amount of lipoic acid was weighed and transferred to a suitable container and then dispersed with water for injection. The pH was adjusted to 7.7 with 1N NaOH (supplied by BDH Laboratory Supplies, a division of Merck Ltd, Poole, UK). The test article was weighed, added and stirred to dissolve. The pH was adjusted to 7.5 with 1N NaOH. Propylene glycol was added to obtain the correct volume.
The calculated amount of DL-Methionine was weighed and transferred to a suitable container and dispersed in water for injection. The test article was weighed and added to the solution. The pH was adjusted to 7.5 with 0.1N NaOH. Ethanol was added to make the required volume.

[2] = tested on: post-menopausal women with low bone mineral density; assay: Phase II clinical study of subcutaneous Ostabolin-C in post-menopausal women with low BMD (BMD, bone markers, serum calcium, side effects); conditions: for Sitting HR / Headache / HyperCa > 2.65 / HyperCa > 2.75 / N + H / Nausea: 4 months; for Headache / HyperCa > 2.65 / HyperCa > 2.75 / N + H / Nausea: unit assumed
Excerpt: A four month Phase II clinical study was undertaken to investigate the safety, tolerability and efficacy of Ostabolin-C™ in post-menopausal women with low bone mineral density (BMD). […] The clinical protocol is a 16-week phase II randomized, double-blind, placebo-controlled, parallel group, dose finding study to investigate the safety, tolerability and efficacy of Ostabolin-C™ in post-menopausal women with low bone mineral density (BMD). In this study, 261 patients underwent four months of daily dosing of placebo and four active groups. The active groups included daily administration of Ostabolin-C™ in doses of 7.5, 15, 30, and 45 μg. Ostabolin-C™ is formulated as a clear, colorless liquid provided in pre-filled syringes and injected subcutaneously (SC). Subjects self-administer SC 0.1 mL injections of their assigned dose of Ostabolin-C™ 7.5, 15, 30, and 45 μg or placebo daily for 16 weeks in rotating quadrants of the abdomen. The subjects were post-menopausal women (for at least 5 years) with moderate osteoporosis.
The key endpoints for the study include change in mean BMD at the lumbar spine, as assessed by dual energy x-ray absorptiometry (DEXA), and measured by change from the Baseline visit. The Baseline visit is the first visit of the patient, before undergoing any treatment. Secondary efficacy endpoints include the following, as measured by change from Baseline visit:
DEXA: Bone formation and resorption markers: • Mean femoral neck BMD • Serum osteocalcin • Mean trochanter BMD • Serum amino terminal pro-peptide of type 1 pro-collagen (P1NP) • Mean total hip BMD • Mean radial BMD (distal and midshaft) • Bone specific alkaline phosphatase (BSAP) • Bone mineral content (BMC) • Serum C-telopeptide (CTx) • Bone area • Serum N-telopeptide (NTx)

SMILES: CC[C@H](C)[C@H](NC(=O)[C@H](CCC(=O)O)NC(=O)[C@H](CO)NC(=O)[C@@H](NC(=O)[C@@H](N)CO)C(C)C)C(=O)N[C@@H](CCC(N)=O)C(=O)N[C@@H](CC(C)C)C(=O)N[C@@H](CCSC)C(=O)N[C@@H](Cc1c[nH]cn1)C(=O)N[C@@H](CC(N)=O)C(=O)N[C@@H](CC(C)C)C(=O)NCC(=O)N[C@@H](CCCCN)C(=O)N[C@@H](Cc1c[nH]cn1)C(=O)N[C@@H](CC(C)C)C(=O)N[C@@H](CC(N)=O)C(=O)N[C@@H](CO)C(=O)N[C@@H](CCSC)C(=O)N[C@@H](CCC(=O)O)C(=O)N[C@@H](CCCN=C(N)N)C(=O)N[C@H](C(=O)N[C@H]1CCC(=O)NCCCC[C@@H](C(=O)N[C@@H](CC(C)C)C(=O)N[C@@H](CC(C)C)C(=O)N[C@@H](CCC(N)=O)C(=O)N[C@@H](CC(=O)O)C(=O)N[C@H](C(N)=O)C(C)C)NC(=O)[C@H](CCCN=C(N)N)NC(=O)[C@H](CC(C)C)NC(=O)[C@H](Cc2c[nH]c3ccccc23)NC1=O)C(C)C [Ostabolin-C, [Leu^27]cyclo[Glu^22-Lys^26]-PTH-(1-31)-NH2] (H-SVSEIQLMHNLGKHLNSMERVEWLRKLLQDV-NH2; lactam 22-26)
- bioavailability ([1]; female, 200 ug/kg, IM, read-out: Absolute bioavailability): 8.7%
- level at 2 min ([1]; female, 200 ug/kg, IV, not quantified, read-out: plasma concentrations at 2 minutes post the end of the infusion): > 610 ng/mL
- bioavailability ([1]; female, 200 ug/kg, SC, read-out: Absolute bioavailability (Fabs)): < 2%
- Vd ([1]; female, 200 ug/kg, IV, female rats, read-out: Vss): 0.479 L/kg
- Vd ([1]; female, 200 ug/kg, IV, female rats, read-out: Vz): 0.471 L/kg
- half-life ([1]; female, other: SC, 200 ug/kg, SC, IM and IV dose routes, read-out: terminal elimination half life, where calculable): 7.2 to 42.4 min
- clearance ([1]; 200 ug/kg, IV, female rats): 45.4 mL/min/kg
- Tmax ([1]; IV, female rats, post end of infusion): 5 min
- Mean [Ca] ([2]; 30 μg (4 months)): 0.040 mmol/L
- hypercalcemia seen at least once, % of group ([2]; 30 μg doses (placebo 5%)): 5%
- Sitting HR ([2]; 30 ug): 2.4
- Headache ([2]; 30 ug): 19.6%
- HyperCa > 2.65 ([2]; 30 ug): 4.5%
- HyperCa > 2.75 ([2]; 30 ug): 2.3%
- N + H ([2]; 30 ug): 7.8%
- Nausea ([2]; 30 ug): 25.5%
- Mean [Ca] ([2]; 45 μg (4 months)): 0.070 mmol/L
- Sitting HR ([2]; 45 ug): 4.0
- Headache ([2]; 45 ug): 21.8%
- HyperCa > 2.65 ([2]; 45 ug): 27.3%
- HyperCa > 2.75 ([2]; 45 ug): 9.1%
- N + H ([2]; 45 ug): 12.7%
- Nausea ([2]; 45 ug): 29.1%
- percent of abnormal serum calcium ([2]; doses up to and including 30 μg (FIG. 14)): no notable difference from placebo
